Tests used:
[1] = Inhibition of LPM7 beta 1i subunit in human Ramos cells using rh110-(pal)2 substrate by fluorogenic assay; type: cell-based
[2] = Inhibition of LPM7 beta 5i subunit in human Ramos cells using ac-(anw)2-r110 substrate by fluorogenic assay; type: cell-based
[3] = Inhibition of LPM7 in CpG type A-stimulated human PBMCs by CXCL10/IP10 detection based PBMC IP-10 assay
[4] = Inhibition of LPM7 beta 5c subunit in human Ramos cells using rh110-(wla)2 substrate by fluorogenic assay; type: cell-based
[5] = Inhibition of LPM7 beta 1c subunit in human Ramos cells using rh110-(Ile)2 substrate by fluorogenic assay; type: cell-based

IC50 [1] | IC50 [2] | EC50 [3] | IC50 [4] | IC50 [5] | Compound
142 nM | 18 nM | 1220 nM | 560 nM | 3340 nM | CCCC[C@H](NC(=O)[C@H](Cc1c[nH]c2ccccc12)NC(=O)[C@H](C)NC(=O)C1=C(C)c2ccccc2C1)C(=O)C(=O)NCc1ccccc1
234 nM | 3 nM | 695 nM | 55 nM | 20000 nM | COc1ccc(C[C@H](NC(=O)[C@H](C)NC(=O)C2Cc3ccccc3C2)C(=O)N[C@@H](Cc2ccccc2)C(=O)C(=O)NCc2ccccc2)cc1
968 nM | 4 nM | 379 nM | 14 nM | 18100 nM | C[C@H](NC(=O)C1Cc2ccccc2C1)C(=O)N[C@@H](CCc1ccccc1)C(=O)N[C@@H](Cc1ccccc1)C(=O)C(=O)NCc1ccccc1
2730 nM | 524 nM | 5030 nM | 6160 nM | 20000 nM | C[C@H](NC(=O)OCc1ccccc1)C(=O)N[C@@H](CC(F)(F)F)C(=O)N[C@@H](Cc1ccccc1)C(=O)C(=O)NCc1ccccc1

Source: ChEMBL document CHEMBL3351358, “LPM7 Inhibitors May Potentially Treat Autoimmune Diseases” (ACS Med Chem Lett, 2014)
